Data taken from article PMC7392643, “Antibiotic fidaxomicin is an RdRp inhibitor as a potential new therapeutic agent against Zika virus” (BMC Medicine, 2020).

System: ZIKV (ZG-01)
Assay: Western blotting of ZIKV proteins in infected SNB19 cells
Format: cell-based, Zika virus
Protocol: Tissue specimens obtained from mice or cells were lysed with RIPA lysis buffer (Millipore, Bedford, MA) containing a cocktail of protease and phosphatase inhibitors (Sigma-Aldrich, St. Louis, MO, USA). Protein concentrations were measured with a bicinchoninic acid (BCA) protein assay (Thermo Fisher Scientific, Rockford, IL, USA). Protein samples were separated by sodium dodecyl sulfate-polyacrylamide gel electrophoresis (SDS-PAGE) and transferred onto a polyvinylidene difluoride (PVDF) membrane. Non-specific antibody binding sites were blocked with 5% non-fat milk in Tris-buffered saline (TBS) (20 mM Tris-HCl [pH 7.6], 135 mM NaCl, and 0.1% Tween 20) for 1 h at room temperature and then incubated with the following primary antibodies: anti-STAT2 (1:1000, sc166201, Santa Cruz Biotechnology, Santa Cruz, CA, USA), anti-ZIKV E (1:1000, BF-1176-56, BioFront Technologies, Tallahassee, USA), anti-ZIKV NS5 (1:1000, BF-6A1-100UG, BioFront), and anti-ZIKV NS3 (1:1000, GTX133309, GeneTex, Alton Pkwy, Irvine, CA, USA). Anti-GAPDH (1:2000, ab181602, Abcam, Cambridge, MA, USA) or mouse anti-GAPDH (1:1000, ab9484, Abcam) was used as a loading control. […] The relative protein level was quantified by densitometry and normalized to GAPDH or mGAPDH level using Image J software (NIH, Bethesda, MD, USA).

CCc1c(Cl)c(O)c(Cl)c(O)c1C(=O)O[C@H]1[C@H](O)[C@H](OC)[C@H](OC/C2=C\C=C\C[C@H](O)/C(C)=C/[C@H](CC)[C@@H](O[C@@H]3OC(C)(C)[C@@H](OC(=O)C(C)C)[C@H](O)[C@@H]3O)/C(C)=C/C(C)=C/C[C@@H]([C@@H](C)O)OC2=O)O[C@@H]1C [Fidaxomicin]
amount of ZIKV NS3 protein (SNB19 cell lysates, time-dependent): decreased
ZIKV NS5 and E proteins (SNB19 cells, MOI 1.0 and 2.0): decreased
